In patent publication US9169255B2, “Caffeinated compounds and compositions for treatment of amyloid diseases and synucleinopathies” (ProteoTech Inc, priority 2011, dated 2015):

Tests used:
Assay type in all cases: biochemical
α-synuclein fibrils = biological target: T1, α-synuclein fibrils (Homo sapiens, UniProt P37840); experiment: Congo red binding assay, pre-formed α-synuclein fibrils; details: 2-day incubation
T1 construct: purchased rPeptide, Bogart, Calif
Method: In this set of studies, the efficacy of certain compounds provided herein to cause a disassembly/disruption/disaggregation of pre-formed fibrils of Parkinson's disease (i.e. consisting of α-synuclein fibrils) was analyzed. For the studies described below in Parts A and B, 69 μM of α-synuclein (rPeptide, Bogart, Calif.) was first incubated at 37° C. for 4 days in 20 mM sodium acetate buffer at pH 4 with circular shaking (1,300 rpm) to cause α-synuclein aggregation and fibril formation.
In the Congo red binding assay, the ability of a given test compound to alter α-synuclein aggregate binding to Congo red is quantified. In this assay Congo red binds specifically to fibrillar protein, and this binding is directly proportional to the amount of fibrils formed. Following initial α-synuclein fibrilization as described above, α-synuclein aggregates and test compounds were incubated for 2 days and then vacuum filtered through a 0.2 μm filter. The amount of α-synuclein retained in the filter was then quantitated following staining of the filter with Congo red. After appropriate washing of the filter, any lowering of the Congo red color on the filter in the presence of the test compound (compared to the Congo red staining of the protein in the absence of the test compound—i.e. α-synuclein alone) was indicative of the test compound's ability to diminish/alter the amount of aggregated and congophilic α-synuclein and thus cause disassembly/disruption/disaggregation of α-synuclein fibrils.
In one study, the ability of α-synuclein fibrils to bind Congo red following a 2-day incubation of α-synuclein in the absence or presence of increasing amounts of the compounds provided herein, including positive reference (control) compounds (at test compound:α-synuclein molar ratios of 10:1, 1:1, 0.1:1, 0.01:1) was determined. The results of this study indicate that compounds of this invention disrupt/disaggregate/disassemble pre-formed α-synuclein aggregates as indicated by their ability to inhibit Parkinson's disease type α-synuclein fibril binding to Congo red.

wild-type α-synuclein = wild-type α-synuclein (Homo sapiens, UniProt P37840); experiment: Thioflavin T fluorometry, inhibition of formation of α-synuclein β-sheet from fresh α-synuclein
Method: To test whether the compounds can inhibit formation of α-synuclein β-sheet, the same assay as described in Example 2, was utilized but the α-synuclein was fresh and not pre-fibrillized. Fresh wild-type α-synuclein was dissolved in a buffer containing 9.5 mM phosphate, 137 mM sodium chloride and 2.7 mM potassium chloride (phosphate-buffered saline; PBS), and the pH was adjusted to pH 7.4. This solution was then lyophilized and dissolved in 1.0 ml deionized water at 0.5 mg/ml (35 μM). As indicated above the test compounds (typically at test compound:α-synuclein molar ratios of 10:1, 1:1, 0.1:1, and 0.01:1) were then added to the α-synuclein. Following 24-38 hours of co-incubation, the incubation mixtures were diluted 1:10 and 50 μl of each diluted incubation mixture was transferred into a 96-well microtiter plate containing 150 μl of distilled water and 50 μl of a Thioflavin T solution (i.e. 500 μM Thioflavin T in 250 mM phosphate buffer, pH 6.8). The final concentration of α-synuclein was 0.7 μM and the concentration of Thioflavin T reagent was 100 μM in 50 mM phosphate buffer, pH 6.8. In some experiments, 200 μl of each diluted incubation mixture was combined in the 96-well microtiter plate with 50 μl of the 500 μM Thioflavin T solution to give 2.8 μM α-synuclein in the presence of 100 μM Thioflavin T reagent. The fluorescence was read at 485 nm (444 nm excitation wavelength) using an ELISA plate fluorometer after subtraction with buffer alone or compound alone, as blank. Positive control compound 1 performed nearly identically in inhibiting α-synuclein aggregation regardless of whether 0.7 μM or 2.8 μM α-synuclein was subsequently used in the Thioflavin T reaction.

Aβ 1-42 fibrils [1] = biological target: T2, Aβ 1-42 fibrils (Homo sapiens, UniProt P05067); experiment: Thioflavin T fluorometry, disruption of pre-fibrillized Aβ 1-42; details: for Thioflavin T fluorometry % Inhibition: 2-day incubation; for effect against Aβ fibrils/aggregates at substoichiometric concentrations: test compound:Aβ molar ratios of 0.1:1 and 0.05:1
T2 construct: pre-fibrillized human Aβ 1-42 (rPeptide); purchased rPeptide
Text: In this assay Thioflavin T binds specifically to fibrillar amyloid, and this binding produces a fluorescence enhancement at 485 nm that is directly proportional to the amount of amyloid fibrils formed. The higher the fluorescence, the greater the amount of amyloid fibrils formed (Naki et al., Lab. Invest. 65:104-110, 1991; Levine III, Protein Sci. 2:404-410, 1993; Amyloid: Int. J. Exp. Clin. […] The emission fluorescence was read at 485 nm (444 nm excitation wavelength) using an ELISA plate fluorometer after subtraction with buffer alone or compound alone, as blank.

Aβ 1-42 fibrils [2] = biological target: T2, Aβ 1-42 fibrils; experiment: Congo red binding assay, Aβ 1-42 fibrils; details: for Congo Red Binding % Inhibition: 2-day incubation
Method: In the Congo red binding assay the ability of a test compound to alter β-amyloid binding to Congo red is quantified. In this assay, Aβ 1-42 (as prepared for the Thio T assay) and test compounds were incubated for 2 days and then vacuum filtered through a 0.2 μm filter. The amount of Aβ 1-42 retained in the filter was then quantitated following staining of the filter with Congo red. After appropriate washing of the filter, any lowering of the Congo red color on the filter in the presence of the test compound (compared to the Congo red staining of the amyloid protein in the absence of the test compound) was indicative of the test compound's ability to diminish/alter the amount of aggregated and congophilic Aβ.

[3] = compound:peptide molar ratio 0.01:1
[4] = compound:peptide molar ratio 0.1:1
[5] = compound:peptide molar ratio 1:1
[6] = compound:peptide molar ratio 10:1
[7] = compound:peptide molar ratio 0.05:1
[8] = compound:peptide molar ratio 5:1

T2 sequence (P05067 672-713 limits assumed): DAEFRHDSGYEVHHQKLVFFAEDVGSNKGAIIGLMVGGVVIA

Compound	Congo Red Binding- % Inhibition (α-synuclein fibrils; [3])	Congo Red Binding- % Inhibition (α-synuclein fibrils; [4])	Congo Red Binding- % Inhibition (α-synuclein fibrils; [5])	Congo Red Binding- % Inhibition (α-synuclein fibrils; [6])	ThioT Assay % Inhibition (wild-type α-synuclein; [3])	ThioT Assay % Inhibition (wild-type α-synuclein; [4])	ThioT Assay % Inhibition (wild-type α-synuclein; [5])	ThioT Assay % Inhibition (wild-type α-synuclein; [6])	Thioflavin T fluorometry % Inhibition (Aβ 1-42 fibrils [1]; [7])	Thioflavin T fluorometry % Inhibition (Aβ 1-42 fibrils [1]; [4])	Thioflavin T fluorometry % Inhibition (Aβ 1-42 fibrils [1]; [5])	Thioflavin T fluorometry % Inhibition (Aβ 1-42 fibrils [1]; [8])	Thioflavin T fluorometry % Inhibition (Aβ 1-42 fibrils [1]; [6])	Congo Red Binding % Inhibition (Aβ 1-42 fibrils [2]; [4])	Congo Red Binding % Inhibition (Aβ 1-42 fibrils [2]; [5])	Congo Red Binding % Inhibition (Aβ 1-42 fibrils [2]; [8])	Congo Red Binding % Inhibition (Aβ 1-42 fibrils [2]; [6])	effect against Aβ fibrils/aggregates at substoichiometric concentrations (Aβ 1-42 fibrils [1])	inhibition of Aβ 1-42 fibrils (Thioflavin T fluorometry) (Aβ 1-42 fibrils [1]; all concentrations tested)	inhibition of Aβ 1-42 fibril binding to Congo red (Aβ 1-42 fibrils [2]; all concentrations tested)
Cn1c(=O)n(Cc2ccc(O)c(O)c2)c(=O)c2c1ncn2Cc1ccc(O)c(O)c1 [PD-151, 3-Methyl-1,7-bis(3′,4′-dihydroxybenzyl)xanthine]	3%	1%	6%	22%	0%	0%	0%	78%	18%	20%	56%	87%	94%	13%	12%	47%	63%	–	–	–
Cn1cnc2c1c(=O)n(Cc1ccc(O)c(O)c1)c(=O)n2Cc1ccc(O)c(O)c1 [PD-150, 7-Methyl-1,3-bis(3′,4′-dihydroxy)benzylxanthine]	–	–	–	35%	0%	0%	22%	91%	41%	35%	67%	87%	94%	10%	18%	46%	60%	effective	–	–
Cn1c(=O)c2c(ncn2Cc2ccc(O)c(O)c2)n(Cc2ccc(O)c(O)c2)c1=O [PD-152]	0%	6%	19%	22%	0%	0%	0%	72%	12%	13%	54%	87%	91%	4%	21%	48%	59%	–	–	–
1,3-dimethyl-7-(3′,4′-dibenzyloxy)benzyl-8-(3′,4′-dihydroxyphenyl)xanthine [PD-154]	3%	0%	12%	0%	8%	44%	89%	89%	43%	36%	60%	74%	80%	0%	0%	0%	0%	effective	–	–
Cn1c(=O)c2c(ncn2C)n(C)c1=O [Caffeine, reference compound]	–	–	–	0%	0%	0%	0%	0%	–	–	0%	0%	8%	–	0%	0%	1%	–	no significant inhibition	no significant inhibition
Cn1c(=O)c2c(nc(-c3ccc(O)c(O)c3)n2C)n(C)c1=O [PD-153, 1,3,7-trimethyl-8-(3′,4′-dihydroxyoxyphenyl)xanthine]	1%	2%	6%	18%	13%	23%	0%	80%	5%	0%	6%	17%	63%	7%	20%	19%	20%	–	–	–
